# Reference: PubChem BioAssay (NCI)
#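 Grown in 96-well plates, cells were treated for 48 hours with each compound at five concentrations. Insufficient inhibition: endpoint recorded as highest concentration tested. TGI is the concentration that stops growth completely.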 Where a SMILES comes first, the peptide text is derived from it. [ ]: non-standard residue; d: D form. Phe(4-NO2) = N[CH](Cc1ccc([N+](=O)[O-])cc1)C(=O)O
# Legend:
# Test in all cases: NCI-60 cell line screen, 48 h
# A498 renal = system: A498 renal
# A549 NSCLC = system: A549 NSCLC
# CAKI-1 renal = system: CAKI-1 renal
# CCRF-CEM leukemia = system: CCRF-CEM leukemia
# COLO 205 colon = system: COLO 205 colon
# HOP-92 NSCLC = system: HOP-92 NSCLC
# MALME-3M melanoma = system: MALME-3M melanoma
# NCI-H23 lung = system: NCI-H23 lung
# NCI-H522 lung = system: NCI-H522 lung
# OVCAR-3 ovarian = system: OVCAR-3 ovarian
# OVCAR-8 ovarian = system: OVCAR-8 ovarian
# RXF 393 renal = system: RXF 393 renal
# SF-268 CNS = system: SF-268 CNS
# SF-539 CNS = system: SF-539 CNS
# SK-MEL-28 melanoma = system: SK-MEL-28 melanoma
# SNB-75 CNS = system: SNB-75 CNS
# SR leukemia = system: SR leukemia
# UACC-257 melanoma = system: UACC-257 melanoma
# MCF7 breast = system: MCF7 breast
# NCI/ADR-RES ovarian = system: NCI/ADR-RES ovarian
SMILES,TGI (A498 renal) [µM],TGI (A549 NSCLC) [µM],TGI (CAKI-1 renal) [µM],TGI (CCRF-CEM leukemia) [µM],TGI (COLO 205 colon) [µM],TGI (HOP-92 NSCLC) [µM],TGI (MALME-3M melanoma) [µM],TGI (NCI-H23 lung) [µM],TGI (NCI-H522 lung) [µM],TGI (OVCAR-3 ovarian) [µM],TGI (OVCAR-8 ovarian) [µM],TGI (RXF 393 renal) [µM],TGI (SF-268 CNS) [µM],TGI (SF-539 CNS) [µM],TGI (SK-MEL-28 melanoma) [µM],TGI (SNB-75 CNS) [µM],TGI (SR leukemia) [µM],TGI (UACC-257 melanoma) [µM],TGI (MCF7 breast) [µM],TGI (NCI/ADR-RES ovarian) [µM]
O=C1[C@@H]2C(c3ccccc3[N+](=O)[O-])=[N+](c3ccccc3)O[C@@H]2C(=O)N1c1ccc(Cc2ccc(N3C(=O)[C@H]4C(c5ccccc5[N+](=O)[O-])=[N+](c5ccccc5)O[C@H]4C3=O)cc2)cc1,> 100,> 100,> 100,> 100,> 100,> 100,81.6,> 100,> 100,> 100,> 100,> 100,> 100,> 100,> 100,> 100,> 100,> 100,–,–
CCOC(=O)C(C(=O)OCC)c1ccc([N+](=O)[O-])o1,–,43.4,16.1,> 22.8,10.4,15,17.6,32.3,3.26,15.8,16.1,24.9,70.3,35.9,27.1,37.3,> 26.4,28.1,–,–
Cc1cc(C)n(-c2ccnc3cc(Cl)ccc23)n1,> 100,> 100,–,> 100,> 100,> 100,> 100,> 100,–,> 100,> 100,> 100,> 100,> 100,> 100,> 100,> 100,> 100,–,–
O=C1C=CC(=O)c2c1ccc1c3ccccc3n(-c3ccccc3)c21,35.2,44.2,19.6,1.94,22.8,7.78,16.8,34.1,3.15,21.9,11,5.34,40.9,29.7,14.4,40.2,1.31,19.2,> 100,–
N#CC1=C(c2ccccc2)C(=C2Nc3ccccc3N2)C2S/C(=C\c3ccccc3)C(=O)N2C1=N (centres undefined),7.73,12.9,4.01,6.66,20.5,2.67,4.07,4.49,3.52,3.37,5.19,–,6.35,3.35,10.5,3.77,4.87,15.7,–,–
CCOC(=O)c1cc2c3c(c(C(C)=O)c(O)c2[nH]1)N(C(C)=O)CC3,> 100,–,> 100,> 100,> 100,–,> 100,> 100,–,> 100,> 100,> 100,> 100,> 100,> 100,> 100,> 100,> 100,> 100,> 100
NC(=O)/C(=N\NC(=O)C[n+]1ccccc1)C1NC(=O)NC1=O (centres undefined),> 100,> 100,> 100,> 100,> 100,> 100,> 100,> 100,–,> 100,> 100,> 100,> 100,> 100,> 100,> 100,> 100,> 100,–,–
Clc1ccc(CCn2cncn2)cc1,> 100,> 100,> 100,> 100,> 100,> 100,> 100,> 100,> 100,> 100,> 100,> 100,> 100,> 100,> 100,> 100,> 100,> 100,–,–
O=C(CCCN1CCC(Nc2ccccc2)(c2nnnn2C2CCCCC2)CC1)c1ccc(F)cc1,–,20.4,–,44.6,4.77,–,27.4,28.8,19.3,24,68.3,22.4,9.25,5.66,12.3,21.9,> 100,6.65,5.74,> 100
N#Cc1ccc(CSC2=C(c3ccc(Cl)cc3)S/C(=C3\SC(SCc4ccc(C#N)cc4)=C(c4ccc(Cl)cc4)S3)S2)cc1,> 100,> 100,> 100,> 100,> 100,–,> 100,> 100,> 100,> 100,> 100,> 100,> 100,> 100,> 100,–,> 100,> 100,> 100,> 100
COC(=O)C1=C(OC(=O)c2ccccc2)C(C(=O)OC)[C@@]2(O)[C@@H](C(=O)OC)[C@H](C)C[C@@H]1[C@@H]2C(=O)OC (some centres undefined),94.5,71.6,> 100,> 100,41.1,–,> 100,> 100,33,> 100,> 100,42.9,> 100,34.5,> 100,> 100,> 100,> 100,> 100,44.8
O=c1[nH]nc(Cc2ccccc2)n1CCCl,> 100,–,> 100,> 100,> 100,–,> 100,> 100,–,> 100,> 100,> 100,> 100,> 100,> 100,> 100,> 100,–,> 100,> 100
Cc1nc(N2N=C(c3ccc(Cl)cc3)CCC2=O)sc1[N+](=O)[O-],–,> 100,> 100,> 100,> 100,–,> 100,> 100,> 100,> 100,> 100,> 100,> 100,> 100,> 100,> 100,> 100,> 100,–,–
CCN(CC)CCN(C(=Nc1ccccc1)N1CCCCC1)c1ccccc1,–,45.2,> 100,46.5,13.1,–,40.1,25.6,13.2,28.3,29.5,41.1,> 100,40,46,–,23.6,34.7,56.7,–
CC(=O)C1Cn2c(=O)c3cc4ccccc4cc3c(=O)n2C=C1C (centres undefined),> 100,> 100,> 100,> 100,> 100,> 100,> 100,> 100,> 100,> 100,> 100,> 100,> 100,> 100,> 100,> 100,> 100,> 100,–,–
CCCN(CCC)C(=S)N/N=C/c1ccccn1,4.03,11.9,15.9,0.255,0.509,26.7,6.05,19.5,1.67,–,11.9,3.41,–,0.734,> 63.9,0.413,0.247,0.195,–,< 0.0354
O=c1c2ccccc2nc(/C=C(\O)c2ccncc2)n1-c1ccc(Cl)cc1,> 100,> 100,> 100,> 100,> 100,> 100,> 100,> 100,> 100,> 100,> 100,–,> 100,–,> 100,61.7,> 100,> 100,–,–
Cc1nn2c(nc1=O)sc1ccc3ccccc3c12,–,> 100,> 100,> 100,> 100,> 100,> 100,> 100,–,> 100,> 100,> 100,> 100,> 100,> 100,> 100,> 100,> 100,–,–
COc1ccc2nc3c([N+](=O)[O-])ccc(NCCCN(C)C)c3c(NCCCN(C)C)c2c1,–,3.43,3.98,2.4,–,> 10,> 10,3.46,–,–,2.9,2.02,> 10,–,3.42,3.49,1.14,> 10,2.33,–
CC(NC(=O)C(Cc1ccc([N+](=O)[O-])cc1)NC(=O)C(N)CCCCN)C(=O)NC(Cc1ccc([N+](=O)[O-])cc1)C(N)=O (centres undefined) (H-K[Phe(4-NO2)]A[Phe(4-NO2)]-NH2; configuration not given here),> 100,> 97,> 100,> 100,> 100,70.5,> 83.7,> 100,> 44.4,> 100,> 100,> 100,> 100,> 83.9,> 100,> 100,–,> 84.7,> 100,> 100
CN(C)CCNC(=O)c1cccc2c(NC(CS)C(=O)O)c3ccccc3[n+](C)c12 (centres undefined),> 100,> 100,–,–,> 100,–,> 100,> 100,–,> 100,> 100,–,80.8,> 100,> 100,> 100,> 100,> 100,> 100,93.2
Cc1ccc(C(c2c(O)c3ccccc3n(-c3ccccc3)c2=O)c2c(O)c3ccccc3n(-c3ccccc3)c2=O)cc1,–,> 100,> 100,> 100,> 100,> 100,> 100,> 100,> 100,> 100,–,> 100,> 100,> 100,> 100,–,> 100,–,–,–
O=c1cc(CSc2c(-c3ccccc3)c(=O)n(-c3ccccc3)c(=S)n2-c2ccccc2)[nH]c(=O)[nH]1,> 100,> 100,> 100,> 100,> 100,–,–,–,–,> 100,> 100,> 100,> 100,> 100,> 100,> 100,> 100,> 100,> 100,> 100
C(=N\Nc1ccccc1)/c1nc2ccccc2nc1/C=N/Nc1ccccc1,31.1,28.8,21.4,> 100,–,33.2,41.6,27.2,35.9,31.9,17,30.1,29.3,30.8,31.7,31.4,> 84.7,58.2,–,–
COc1cc(O)c2c(c1)O[C@@H]1OCC[C@H]21,> 100,> 100,–,> 100,> 100,> 100,> 100,> 100,–,> 100,> 100,–,–,> 100,> 100,> 100,> 100,> 100,–,–
O=C(Nc1cccc(C(F)(F)F)c1)C(=O)C1NC(=S)NC1=O (centres undefined),> 100,> 100,> 100,> 100,> 100,> 100,> 100,> 100,–,> 100,> 100,> 100,> 100,> 100,> 100,> 100,> 100,> 100,–,–
